Experiments:
[1] = system: middle cerebral artery occlusion in rats; assay: Middle cerebral artery occlusion by ligation in rats, infarction area; assay type: in vivo; conditions: MCAo, suspended in CMC 1.5%; for % Infarction Area: Only CMC = 100.00; for Infarction Area in mm^2: Only CMC control 38.5
Excerpt: Brain Res. 2012 Oct 5;1477:45-58]. Using such a method the maximum ineffective dose of the two substances, ultramicronized palmitoylethanolamide and cytidinediphosphocholine, administered separately orally suspended in carboxymethyl cellulose at 1.5% was initially sought. In the maximum ineffective doses found, the two substances were then mixed and administered together again suspended in CMC at 1.5%. The results obtained are collected in the following table 1 and the data of the synergic association between PEA and Citicoline are presented in FIGS. 1A-1B and FIGS. 2A-2B. FIGS. 1A-1B show images of coronal sections after occlusion of the middle cerebral artery (MCAo) in the absence (FIG. 1A), or in the presence of the combined treatment described above (FIG. 1B). FIG. 2 highlights the detected measurements of the infarctual area (FIG. 2A) and volume (FIG. 2B) in the absence or in the presence of the treatment.

[2] = system: dementia from damage due to beta amyloid; conditions: preclinical, optimal dose of 10 mg/kg; cited from earlier work
[3] = system: stroke model from ligation of the middle cerebral artery; conditions: preclinical, optimal dose of 10 mg/kg; cited from earlier work
[4] = system: cranial trauma model; conditions: preclinical, optimal dose of 10 mg/kg; cited from earlier work

Question: With `C[N+](C)(C)CCOP(=O)(O)OP(=O)([O-])OC[C@H]1O[C@@H](n2ccc(N)nc2=O)[C@H](O)[C@@H]1O` [Citicoline, Cytidine-diphosphocholine] as the compound, how does the “% Infarction Area” value ([1]; 50 mg/kg orally) read?
Answer: 99.48%

Question: And the “Infarction Area in mm^2” value ([1]; 50 mg/kg orally)?
Answer: 38.3 mm^2

Question: What does the source list for `CCCCCCCCCCCCCCCC(=O)NCCO` [PEA-um, palmitoylethanolamide]?
Answer: % Infarction Area ([1]; 1 mg/kg orally): 99.22%; Infarction Area in mm^2 ([1]; 1 mg/kg orally): 38.2 mm^2

Question: With `CCCCCCCCCCCCCCCC(=O)NCCO` [palmitoylethanolamide] as the compound, how does the “effect in the model of dementia from damage due to beta amyloid” value [2] read?
Answer: substantial effect

Question: What about the “effect in the stroke model” value [3] of the same compound?
Answer: substantial effect

Question: And the “effect in the cranial trauma model” value [4]?
Answer: substantial effect

— patent publication US20160045529A1, “Pharmaceutical Compositions Containing Palmitoylethanolamide And Cytidine-Diphosphocholine And Methods Of Treatment Therewith” (EPITECH GROUP S.R.L., priority 2014, published 2016)
